This note sets out measurements from ChEMBL document CHEMBL1201862, “PubChem BioAssay data set” (2004).

Test systems include UACC-257; 786-0; SF-539; OVCAR-4; CAKI-1; SN12C; HL-60; UO-31; SK-MEL-2; SR; MOLT-4; HCC 2998; A498; NCI-H226; M14; RXF 393; NCI-H460; HCT-15.
Holding throughout (experiment): NCI anticancer screen, dose series, 48 h

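Assay format: 96-well plates, 48-hour exposure. GI50 is the concentration that inhibits growth by half.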 Calls of active or inactive are those of the source. No stated cut-off is given here; in the data, active = GI50 up to about 1.1 µM and inactive = higher. Bounds are passed on as bounds.

For the compound `COc1ccc([C@@H]2C[C@@H]3C(=O)OC(=O)[C@@H]3c3c2c2ccccc2n3C)cc1`, the GI50 in the experiment on UACC-257, in the experiment with 786-0, in the experiment on SF-539, in the experiment on OVCAR-4, with CAKI-1 and in the experiment on SN12C was > 100 µM (inactive) each time. For the same compound, the GI50 in the experiment with HL-60, in the experiment with UO-31, in the experiment on SK-MEL-2, in the experiment with SR, in the experiment with MOLT-4 and with HCC 2998 was > 100 µM (inactive) each time. For the same compound, the GI50 in the experiment with A498, with NCI-H226 and with M14 was > 100 µM (inactive) throughout.
As for `CCC(O)CCCCCCCCCCCCCCC(=O)O` (configuration not stated), the GI50 with RXF 393 was > 100 µM (inactive); in the experiment on UACC-257, > 100 µM (inactive); in the experiment with 786-0 it was 84.9 µM (inactive); in the experiment with SF-539 it was > 100 µM (inactive); in the experiment with OVCAR-4 it was > 100 µM (inactive); with CAKI-1 it was > 100 µM (inactive). Also, the GI50 in the experiment with NCI-H460 was > 100 µM (inactive); in the experiment on SN12C, > 100 µM (inactive); with HL-60, 24.8 µM (inactive); in the experiment on UO-31, > 100 µM (inactive); with SK-MEL-2, > 100 µM (inactive); in the experiment with SR, 49.9 µM (inactive). Further, the GI50 was 44.3 µM (inactive) in the experiment with MOLT-4, > 100 µM (inactive) in the experiment on A498, > 100 µM (inactive) in the experiment with NCI-H226 and > 100 µM (inactive) in the experiment with M14.
For `CC(N)C(C)c1ccccc1` (configuration not stated), the GI50 with RXF 393, with UACC-257, in the experiment with 786-0, in the experiment on SF-539, in the experiment on OVCAR-4 and in the experiment on CAKI-1 was > 100 µM (inactive) throughout. The GI50 with NCI-H460 was > 100 µM (inactive); in the experiment with HCT-15 it was greater than 100 µM; with SN12C it was > 100 µM (inactive); in the experiment on HL-60, > 100 µM (inactive); with UO-31 it was > 100 µM (inactive); with SK-MEL-2, > 100 µM (inactive). Moreover, the GI50 in the experiment on SR, in the experiment with MOLT-4, with HCC 2998, with A498, with NCI-H226 and in the experiment with M14 was > 100 µM (inactive) in each case.
On to `CCOC(=O)c1ccc(NC(=O)SCCC(=O)O)cc1`, for which the GI50 with RXF 393 is 8.04 µM (inactive); in the experiment with UACC-257 it was > 100 µM (inactive); in the experiment with 786-0 it was > 100 µM (inactive); with SF-539 it was > 100 µM (inactive); in the experiment on NCI-H460, > 100 µM (inactive); in the experiment with HCT-15, greater than 100 µM. The GI50 with SN12C was > 100 µM (inactive); in the experiment with HL-60 it was > 100 µM (inactive); with UO-31, > 100 µM (inactive); in the experiment on SK-MEL-2, > 100 µM (inactive); in the experiment with SR, > 100 µM (inactive); in the experiment on MOLT-4 it was 23 µM (inactive). Moreover, the GI50 is > 100 µM (inactive) with HCC 2998, > 100 µM (inactive) with A498, 3.15 µM (inactive) with NCI-H226 and > 100 µM (inactive) with M14.
On to `COC(=O)C(C(=O)OC)C1CCCC(=O)C1` (configuration not stated), for which the GI50 in the experiment on RXF 393, in the experiment on UACC-257, with 786-0, with SF-539, in the experiment on OVCAR-4 and in the experiment on NCI-H460 was > 100 µM (inactive) throughout. Further, the GI50 in the experiment with HCT-15 was greater than 100 µM; in the experiment with SN12C, > 100 µM (inactive); in the experiment on HL-60, > 100 µM (inactive); in the experiment with UO-31, > 100 µM (inactive); with SK-MEL-2, < 0.01 µM (active); in the experiment with SR, > 100 µM (inactive). Besides, the GI50 in the experiment with MOLT-4, with HCC 2998, in the experiment on A498 and in the experiment with M14 was > 100 µM (inactive) throughout.
For the compound `[N-]=[N+]=Nc1ccccc1Oc1ccccc1`, the GI50 in the experiment on UACC-257, with 786-0, in the experiment with SF-539, in the experiment with OVCAR-4, in the experiment with CAKI-1 and in the experiment with NCI-H460 was > 100 µM (inactive) in each case. Besides, the GI50 in the experiment with HCT-15 is greater than 100 µM; in the experiment on SN12C, > 100 µM (inactive); in the experiment with HL-60 it was > 100 µM (inactive); with UO-31, > 100 µM (inactive); with SK-MEL-2, > 100 µM (inactive); in the experiment with SR it was > 100 µM (inactive). Besides, the GI50 in the experiment with MOLT-4, in the experiment on HCC 2998, in the experiment with A498, with NCI-H226 and in the experiment on M14 was > 100 µM (inactive) in each case.
As to `O=C1C(=O)N(c2ccc(Cl)cc2Cl)C(=O)C(=O)C1c1nc2ccccc2o1`, the GI50 in the experiment with UACC-257, with 786-0, with SF-539, with OVCAR-4, in the experiment with CAKI-1 and with NCI-H460 was > 100 µM (inactive) in each case. Moreover, the GI50 in the experiment with HCT-15 was greater than 100 µM; in the experiment with SN12C, > 100 µM (inactive); with HL-60, > 100 µM (inactive); in the experiment with UO-31, > 100 µM (inactive); in the experiment on SK-MEL-2 it was > 100 µM (inactive); in the experiment with SR, > 100 µM (inactive). In addition, the GI50 with MOLT-4, with HCC 2998, in the experiment on A498, in the experiment with NCI-H226 and in the experiment on M14 was > 100 µM (inactive) throughout.
For the compound `CCOC(=O)c1cnc2c(ccc3ncccc32)c1OCC`, the GI50 in the experiment on RXF 393 was 82 µM (inactive); with UACC-257, > 100 µM (inactive); with 786-0 it was > 100 µM (inactive); in the experiment with SF-539 it was > 100 µM (inactive); in the experiment with OVCAR-4 it was > 100 µM (inactive); in the experiment on NCI-H460, > 100 µM (inactive). Besides, the GI50 in the experiment on HCT-15 is greater than 100 µM; in the experiment on SN12C, > 100 µM (inactive); in the experiment on HL-60 it was > 100 µM (inactive); in the experiment with UO-31 it was > 100 µM (inactive); in the experiment on SK-MEL-2, > 100 µM (inactive); with SR, 70.6 µM (inactive). The GI50 with MOLT-4 is 71.8 µM (inactive); in the experiment with HCC 2998 it was > 100 µM (inactive); in the experiment with A498, > 100 µM (inactive); with NCI-H226 it was > 100 µM (inactive); in the experiment with M14 it was > 100 µM (inactive).
Regarding `CC(C)(C)NC(=O)C12C3C4C1C1C2C3C41I` (configuration not stated), the GI50 with UACC-257 is > 100 µM (inactive); in the experiment on 786-0 it was > 100 µM (inactive); in the experiment with SF-539, > 100 µM (inactive); in the experiment with CAKI-1, > 100 µM (inactive); in the experiment on NCI-H460, > 100 µM (inactive); with HCT-15, greater than 100 µM. The GI50 in the experiment on SN12C, in the experiment with HL-60, in the experiment with UO-31, in the experiment on SK-MEL-2, with SR and in the experiment with MOLT-4 was > 100 µM (inactive) each time. The GI50 in the experiment with HCC 2998, in the experiment with A498 and in the experiment on NCI-H226 was > 100 µM (inactive) in each case.
